Laboratory results as given in US11883387B2, “PqsR inverse agonists” (HELMHOLTZ-ZENTRUM FÜR INFEKTIONSFORSCHUNG GMBH, priority 2018, dated 2024).

Key:
[1] = tested on: P. aeruginosa pyocyanin production; test: Pyocyanin assay; type: cell-based, P. aeruginosa PA14; conditions: Pseudomonas aeruginosa, PA14, 16 h, read-out: IC50-value towards pyocyanin production, PA14 in PPGAS medium, 16 h
How it was run: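 PA14 in PPGAS medium from OD600 0.02 grown 16 h at 37 °C, 200 rpm, with compounds. Pyocyanin extracted with chloroform, back-extracted into 0.2 M HCl, OD520 normalised to OD600.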

PqsR = PqsR (Pseudomonas aeruginosa, UniProt Q9I4X0); test: E. coli based β-galactosidase reporter gene assay (PqsR inverse agonistic activity); type: cell-based; parameters: expressed in transfected cells; host or cells: Escherichia coli DH5α
PqsR, sequence (Q9I4X0 whole entry): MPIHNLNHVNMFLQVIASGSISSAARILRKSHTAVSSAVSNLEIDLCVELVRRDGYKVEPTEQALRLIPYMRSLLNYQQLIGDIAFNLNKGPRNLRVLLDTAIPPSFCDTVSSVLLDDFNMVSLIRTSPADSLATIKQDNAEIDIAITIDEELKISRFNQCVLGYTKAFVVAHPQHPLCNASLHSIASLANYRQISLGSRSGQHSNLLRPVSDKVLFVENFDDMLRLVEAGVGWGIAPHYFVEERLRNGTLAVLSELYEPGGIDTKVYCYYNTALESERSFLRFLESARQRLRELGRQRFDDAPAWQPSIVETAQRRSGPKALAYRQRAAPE
How it was run: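 E. coli DH5α carrying pEAL08-2 (tac-driven pqsR with pqsA-lacZ) was grown to OD600 0.2 and incubated with 0.001–10 μM compound plus 50 nM PQS for 2.5 h at 37 °C. β-Galactosidase activity was measured by ONPG conversion in permeabilized cells and normalized between the no-PQS and solvent controls. IC50 came from concentration variation.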

HepG2 cells = test: Cytotoxicity (MTT) toward HepG2; type: cell-based; conditions: Homo sapiens, 48 h, upper class: or at solubility maximum, read-out: IC50-value towards HepG2
Description: (§1) To obtain information regarding the toxicity of our compounds, their impact on the viability of human cells was investigated. HepG2 and HEK293 cells (2×10^5 per well) were seeded in 24-well, flat-bottomed culture plates. 24 h after seeding the cells the incubation was started by the addition of compounds in a final DMSO concentration of 1%. The living cell mass was determined 48 h after treatment with compounds by adding 0.1 volumes of 3-(4,5-dimethylthiazol-2-yl)-2,5-diphenyltetrazolium bromide (MTT) solution (5 mg per mL sterile PBS) (Sigma, St. Louis, MO) to the wells. After incubating the cells for 30 min at 37° C. (atmosphere containing 5% CO2), MTT crystals were dissolved in a solution containing 10% SDS and 0.5% acetic acid in DMSO. The optical density (OD) of the samples was determined photometrically at 570 nm in a FLUOstar Omega plate reader (BMG labtech, Ortenberg, Germany). To obtain inhibition values for each sample, their ODs were related to those of DMSO controls.

HEK293 cells = test: Cytotoxicity (MTT) toward HEK293; type: cell-based; conditions: Homo sapiens, 48 h, upper class: or at solubility maximum, read-out: IC50-value towards HEK293
Description: as §1

[2] = Kinetic Turbidimetric Aqueous Solubility at room temperature for 5 min; type: physicochemical; conditions: PBS buffer, kinetic from dmso stock, 2% DMSO
How it was run: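 Compound diluted in PBS across typically 0.4–200 μM (final DMSO 2%), held 5 min at room temperature. Turbidity read as absorbance at 620 nm against vehicle control. Four-parameter sigmoidal fit of normalized absorbances with AUC calculation gives Log S.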

[3] = Metabolic stability against human hepatic S9 fraction; type: in vitro ADME
Description: For the evaluation of combined phase I and phase II metabolic stability, the compound (1 μM) was incubated with 1 mg/mL pooled human liver S9 fraction (BD Gentest), 2 mM NADPH regenerating system, 1 mM UDPGA, 10 mM MgCl2 and 0.1 mM PAPS at 37° C. for 0, 5, 15, 30 and 60 min. The metabolic stability of Testosterone (1 μM) and 7-hydroxycoumarin (1 μM) were determined in parallel to confirm the enzymatic activity of the S9 fraction. The incubation was stopped by precipitation of S9 enzymes with 2 volumes of cold acetonitrile containing internal standard (750 nM Diphenhydramine). Samples were stored on ice for 10 min and precipitated protein was removed by centrifugation (10 min, 4° C., 17,000 g). Concentration of the remaining test compound at the different time points was analyzed by LC-MS/MS (TSQ Quantum Access MAX, Thermo Fisher, Dreieich, Germany) and used to determine half-life (t/2).

[4] = tested on: production of signal molecules HHQ and PQS; conditions: inhibitor targeting the enzyme PqsA; read-out: IC50 for reduction of production of signal molecules HHQ and PQS; cited from earlier work
[5] = Metabolic stability in mouse liver microsomes (MLM); type: in vitro ADME; conditions: 1 μM compound, 0.5 mg/mL MLM, 1 mM NADPH, 37° C., read-out: half-life (t1/2) towards MLM
Description: For the evaluation of phase I metabolic stability, the compound (1 μM) was incubated with 0.5 mg/mL MLM (Corning) and 1 mM NADPH at 37° C. for 0, 5, 10, 15 and 30 min. The metabolic stability of Verapamil, Diphenhydramine and Benzydamine (1 μM each) were determined in parallel to confirm the enzymatic activity of the MLM. The incubation was stopped by addition of 2 volumes of acetonitrile containing internal standard (1 μM Leucine Enkephaline). Samples were centrifuged (15 min, 3,500 rpm). Concentration of the remaining test compound at the different time points was analyzed by HPLC-MS/MS and used to determine half-life (t1/2).

[6] = pooled human liver S9 fraction, 1 μM compound, 1 mg/mL pooled human liver S9, phase I and II cofactors, 37° C., read-out: half-life (t1/2) towards human hepatic S9 fraction

Row | SMILES | IC50 [1] [µM] | IC50 (PqsR) [µM] | IC50 (HepG2 cells) [µM] | IC50 (HEK293 cells) [µM] | solubility at 5 min [2] [µM] | half-life at 1 μM [3, 6] [h] | IC50 [4] [µM] | half-life at 1 μM [5] [h] | half-life at 1 μM ([3]; human, s9) [h]
1 | Fc1cc(-n2cc(CNc3ccnc(C(F)(F)F)c3)nn2)ccc1Oc1ccccc1 [Compound 028, N-((1-(3-fluoro-4-phenoxyphenyl)-1H-1,2,3-triazol-4-yl)methyl)-2-(trifluoromethyl)pyridin-4-amine] | 0.251 to 1 | ≤ 0.05 | 25 to 50 | 25 to 50 |  |  |  |  | 
2 | COc1ccc(-c2ncc(CNc3ccnc(C#N)c3)s2)cc1Cl [Compound 077, 4-(((2-(3-Chloro-4-methoxyphenyl)thiazol-5-yl)methyl)amino)picolinonitrile] | ≤ 0.25 | ≤ 0.05 | 25 to 50 |  | > 10 |  |  |  | 
3 | Nc1cc(SCc2nc3cc(Oc4ccccc4)ccc3[nH]2)nc(C(F)(F)F)n1 [Compound 125, 6-(((5-Phenoxy-1H-benzo[d]imidazol-2-yl)methyl)thio)-2-(trifluoromethyl)pyrimidin-4-amine] | 0.251 to 1 | ≤ 0.05 |  |  | > 25 | > 1 |  |  | 
4 | Nc1cccc(F)c1C(=O)O [Compound 6FABA] |  |  |  |  |  |  | ~100 |  | 
5 | FC(F)(F)c1cc(SCc2nc3cc(Oc4ccccc4)ccc3[nH]2)ccn1 [Compound 127, 5-Phenoxy-2-(((2-(trifluoromethyl)pyridin-4-yl)thio)methyl)-1H-benzo[d]imidazole] | ≤ 0.25 | ≤ 0.05 | 25 to 50 | 25 to 50 | > 10 |  |  |  | 
6 | N#Cc1cc(NCc2cnc(-c3ccc(Oc4ccccc4)cc3)s2)ccn1 [Compound 076, 4-(((2-(4-Phenoxyphenyl)thiazol-5-yl)methyl)amino)picolinonitrile] | ≤ 0.25 | ≤ 0.05 |  |  |  | > 1 |  | > 1 | 
7 | CC(C)Oc1ccc(-c2nc(CNc3ccnc(C(F)(F)F)c3)cs2)cc1Cl [Compound 082, N-((2-(3-Chloro-4-isopropoxyphenyl)thiazol-4-yl)methyl)-2-(trifluoromethyl)pyridin-4-amine] | ≤ 0.25 | ≤ 0.05 |  |  |  | > 1 |  |  | 
8 | FC(F)(F)c1cc(NCc2csc(-c3ccc(Oc4ccccc4)cc3)n2)ccn1 [Compound 080, N-((2-(4-Phenoxyphenyl)thiazol-4-yl)methyl)-2-(trifluoromethyl)pyridin-4-amine] | 1 to 5 | ≤ 0.05 | 25 to 50 | 25 to 50 | > 10 |  |  |  | 
9 | FC(F)(F)c1cc(SCc2cn(-c3ccc(Oc4ccccc4)cc3)nn2)ccn1 [Compound 054, 4-(((1-(4-phenoxyphenyl)-1H-1,2,3-triazol-4-yl)methyl)thio)-2-(trifluoromethyl)pyridine] | 0.251 to 1 | ≤ 0.05 |  |  |  | > 1 |  |  | 
10 | FC(F)(F)Oc1ccc(-n2cc(CNc3ccnc(C(F)(F)F)c3)nn2)cc1Cl [Compound 022, N-((1-(3-Chloro-4-(trifluoromethoxy)phenyl)-1H-1,2,3-triazol-4-yl)methyl)-2-(trifluoromethyl) pyridin-4-amine] | 0.251 to 1 | ≤ 0.05 | 25 to 50 | 25 to 50 | > 25 |  |  | 0.517 to 1 | 
11 | CC(C)Oc1ccc(-c2nc(CNc3ccnc(C(F)(F)F)c3)cs2)cc1 [Compound 087, N-((2-(4-Isopropoxyphenyl)thiazol-4-yl)methyl)-2-(trifluoromethyl)pyridin-4-amine] | ≤ 0.25 | ≤ 0.05 |  |  | > 10 | > 1 |  |  | 
12 | Fc1cc2nc(CSc3ccnc(C(F)(F)F)c3)[nH]c2cc1F [Compound 122, 5,6-Difluoro-2-(((2-(trifluoromethyl)pyridin-4-yl)thio)methyl)-1H-benzo[d]imidazole] |  | 0.251 to 1 | ≥ 50 | ≥ 50 | ≥ 100 |  |  |  | 
13 | FC(F)(F)c1cc(NCc2ccc(-c3ccc(Oc4ccccc4)cc3)cn2)ccn1 [Compound 097, N-((5-(4-phenoxyphenyl)pyridin-2-yl)methyl)-2-(trifluoromethyl)pyridin-4-amine] | 0.251 to 1 | 0.051 to 0.25 | 25 to 50 | 25 to 50 | > 10 |  |  |  | 
14 | FC(F)(F)c1cc(NCc2cnc(-c3ccc(Oc4ccccc4)cc3)s2)ccn1 [Compound 071, N-((2-(4-Phenoxyphenyl)thiazol-5-yl)methyl)-2-(trifluoromethyl)pyridin-4-amine] | 0.251 to 1 | ≤ 0.05 | 25 to 50 | 25 to 50 |  |  |  |  | > 1
15 | FC(F)(F)c1cc(NCc2cnc(-c3ccc(Cl)cc3)s2)ccn1 [Compound 072, N-((2-(4-Chlorophenyl)thiazol-5-yl)methyl)-2-(trifluoromethyl)pyridin-4-amine] | 0.251 to 1 | 0.051 to 0.25 | 25 to 50 |  | > 25 | > 1 |  | > 1 | 
16 | Cc1cccc(Oc2ccc3[nH]c(CSc4cc(N)nc(C(F)(F)F)n4)nc3c2)c1 [Compound 128, 6-(((5-(m-Tolyloxy)-1H-benzo[d]imidazol-2-yl)methyl)thio)-2-(trifluoromethyl)pyrimidin-4-amine] |  | ≤ 0.05 | 25 to 50 | 25 to 50 | > 25 |  |  |  | 
17 | FC(F)(F)Oc1ccc(-n2cc(CNc3ccnc(C(F)(F)F)c3)nn2)cc1 [Compound 012, N-((1-(4-(Trifluoromethoxy)phenyl)-1H-1,2,3-triazol-4-yl)methyl)-2-(trifluoromethyl)pyridin-4-amine] | 1 to 5 | ≤ 0.05 |  | 25 to 50 |  |  |  |  | 
18 | FC(F)(F)c1cc(SCc2cnc(-c3ccc(Oc4ccccc4)cc3)s2)ccn1 [Compound 066, 2-(4-Phenoxyphenyl)-5-(((2-(trifluoromethyl)pyridin-4-yl)thio)methyl)thiazole] | 1 to 5 | 0.051 to 0.25 |  |  |  | > 1 |  |  | 
19 | Nc1cc(SCc2nc3cc(Oc4cccc(F)c4)ccc3[nH]2)nc(C(F)(F)F)n1 [Compound 129, 6-(((5-(3-Fluorophenoxy)-1H-benzo[d]imidazol-2-yl)methyl)thio)-2-(trifluoromethyl)pyrimidin-4-amine] |  | ≤ 0.05 | 25 to 50 | 25 to 50 |  |  |  | 0.517 to 1 | 
20 | FC(F)(F)c1cc(NCc2nc3ccc(Oc4ccccc4)cc3o2)ccn1 [Compound 134, N-((6-Phenoxybenzo[d]oxazol-2-yl)methyl)-2-(trifluoromethyl)pyridin-4-amine] |  | 0.251 to 1 |  |  | ≥ 100 | > 1 |  |  | 
21 | FC(F)(F)c1cc(NCc2csc(-c3ccc(C4CC4)cc3)n2)ccn1 [Compound 081, N-((2-(4-Cyclopropylphenyl)thiazol-4-yl)methyl)-2-(trifluoromethyl)pyridin-4-amine] | ≤ 0.25 | ≤ 0.05 |  |  |  | 0.683 to 1 |  |  | 
